The values below come from patent US9610274B2, “Methods for treating bipolar disorder” (priority 2010, dated 2017).

Test [1] concerns the target T1, hNET (human norepinephrine transporter) (Homo sapiens, UniProt P23975).
T1 construct: expressed in transfected cells; host or cells: HEK293 (ATCC), geneticin-selected clonal cells
In kind it is binding. The conditions noted are these: HEK-hNET cells; mean ± SEM.

The subject of the next test is isolated mice. Briefly: Isolation-induced fighting in mice. The format is in vivo. Conditions: Mus musculus. As to the method: Male CD-1 mice (15-20 g) were utilized in this experiment. The test compound (15, 22 and 30 mg/kg) was dissolved in physiological saline (0.9%) and administered orally (PO) in a volume of 1 mL/100 g body weight.
Mice were isolated for up to 8 weeks in individual solid walled wire cages (24×20×17 cm). The animals were not disturbed except to replenish food. Aggression was tested by placing an intruder mouse into the home cage of the resident animal. Aggression was characterized by an attack on the “intruder” during a three minute period. […] Only those resident mice displaying fighting behavior were selected. […] ED50 values were calculated from the percent inhibition of fighting in computer program based on probit analysis.

Structures are written as SMILES.

T1 sequence (P23975 whole entry): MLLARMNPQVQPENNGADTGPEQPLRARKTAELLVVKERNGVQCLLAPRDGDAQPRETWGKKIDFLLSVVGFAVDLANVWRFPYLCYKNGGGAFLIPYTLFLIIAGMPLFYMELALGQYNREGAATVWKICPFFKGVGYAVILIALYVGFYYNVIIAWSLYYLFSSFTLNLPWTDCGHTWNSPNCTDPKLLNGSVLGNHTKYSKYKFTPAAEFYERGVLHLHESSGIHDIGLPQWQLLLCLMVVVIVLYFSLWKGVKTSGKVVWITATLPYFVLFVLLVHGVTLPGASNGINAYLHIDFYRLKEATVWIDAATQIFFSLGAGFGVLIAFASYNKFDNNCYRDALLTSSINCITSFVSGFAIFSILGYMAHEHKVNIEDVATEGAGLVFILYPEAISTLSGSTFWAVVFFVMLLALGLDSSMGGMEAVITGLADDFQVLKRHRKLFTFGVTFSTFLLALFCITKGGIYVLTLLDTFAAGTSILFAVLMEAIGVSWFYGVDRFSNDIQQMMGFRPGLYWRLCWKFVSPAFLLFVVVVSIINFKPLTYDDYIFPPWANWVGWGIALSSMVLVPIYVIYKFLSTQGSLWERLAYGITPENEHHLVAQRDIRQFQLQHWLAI

The term Hill coefficient denotes the slope factor of the fitted curve. Broadly, the inhibition is the percentage by which the read-out fell short of the control. On to `NC(=O)OC[C@H](N)Cc1ccccc1` [test compound, O-carbamoyl-(D)-phenylalaninol], for which the Hill coefficient in test [1] is given as −1.45 ± 0.34. The compound further came in with an inhibition at 15 mg/kg in the test with isolated mice (1 h, 15 mg/kg PO, 60 min after dosing) of 28%. Besides, the inhibition at 22 mg/kg with isolated mice (1 h, 22 mg/kg PO, 60 min after dosing) stood at 44%. Further, at 30 mg/kg the inhibition with isolated mice (1 h, 30 mg/kg PO, 60 min after dosing) was 56%. Further, the ED50 with isolated mice (PO, inhibition of isolation-induced fighting, probit analysis, read-out: ED50 (mg/kg, PO) (confidence limits)) came out at 25.9 mg/kg.
